Data: patent publication USRE38506E1, “Potent inducers of terminal differentiation and methods of use thereof” (Sloan-Kettering Institute for Cancer Research, priority 1991, dated 2004)

Tests used:
[1] = tested on: HL-60 human leukemia cells; assay: Induction of Differentiation of HL-60 (NBT reduction); assay type: cell-based; conditions: for Optimal Conc.: HL-60, Table 2; for NBT Positive: HL-60, at optimal concentration
Protocol: (§1) Commitment to terminal differentiation, characterized by limited cell division (colony size<32 cells) and accumulation of hemoglobin (benzidine reactive colonies) was assayed by a colony cloning assay using 2% methylcellulose as described (25) (see Table 1 for results). HL-60 human leukemia cells, derived from peripheral blood leukocytes of a patient with acute promyelocytic leukemia (40). Induced differentiation of HL-60 cells assayed by determining the proportion of cells that developed the capacity to reduce nitroblue tetrazolium (NBT) (41) (see Table 2 for results).

[2] = tested on: MELC 745A-DS19 cells; assay: Induction of terminal differentiation of murine erythroleukemia cells (benzidine reactivity); assay type: cell-based; conditions: for Optimal Conc.: Table 1; for Benzidine Reactive Cells: at optimal concentration
Protocol: MELC 745A-DS19 cells and the variants of MELC derived from this cell line, namely, the vincristine-resistant MELC V3.17 and VCR.C(2)15 cell lines (26), and the dimethylsulfoxide-resistant cell line, DR10 (39), were maintained in alpha minimal essential medium containing 10% fetal calf serum (16). Cell cultures for all experiments were initiated with cells in logarithmic growth phase (day 2 cultured cells) at a density of 10^5 cells/ml. Inducer compounds were added in the final concentrations indicated below, dissolved in culture medium without fetal calf serum unless otherwise indicated. Cell density and benzidine reactively were determined as described (16).
as §1

[3] = tested on: MELC 745A-DS19 cells; conditions: without continuing drug exposure; cited from earlier work

SMILES | Optimal Conc. [1] | NBT Positive [1] | Optimal Conc. [2] | Benzidine Reactive Cells [2] | minimum duration of continuous exposure required to induce differentiation in a substantial portion (>20%) of the population [3]
O=C(CCCCCC(=O)Nc1ccccc1)NO [compound 2] | 7 µM | 22% | 20 µM | 84% | –
N#Cc1cccc(NC(=O)CCCCCCC(=O)NO)c1 [compound 22] | 1.7 µM | 28% | 5 µM | 55% | –
O=C(CCCCCCC(=O)Nc1ccc([N+](=O)[O-])cc1)NO [compound 25] | 3 µM | 18% | 0.8 µM | 30% | –
CC(=O)NCCCCCCNC(C)=O [HMBA, N,N′-hexamethylene bisacetamide] | – | – | – | – | about 36 hours
N#CCc1ccc(NC(=O)CCCCCCC(=O)NO)cc1 [compound 29] | 1 µM | 15% | 1 µM | 30% | –
O=C(CCCCCCC(=O)Nc1c(F)ccc(F)c1F)NO [compound 43] | 2 µM | 20% | 31 µM | 53% | –
COC(=O)c1ccc(NC(=O)CCCCCCC(=O)NO)cc1 [compound 36] | 1 µM | 32% | 4 µM | 28% | –
O=C(NO)c1ccc(C(=O)Nc2ccccc2)cc1 [compound 55] | – | – | – | 53% | –
COc1ccccc1NC(=O)CCCCCCC(=O)NO [compound 51] | – | – | 8 µM | 36% | –
CC(CCCCCC(C)C(=O)N(C)C)C(=O)N(C)C (stereo not shown) [compound 66] | – | – | – | 80% | –
O=C(CCCCCCC(=O)Nc1ccc(C(F)(F)F)cc1)NO [compound 27] | – | – | 5 µM | 47% | –
CNC(=O)c1ccc(NC(=O)CCCCCCC(=O)NO)cc1 [compound 37] | – | – | 30 µM | 16% | –
O=C(CCCCCCC(=O)Nc1c(F)cccc1F)Nc1c(F)cccc1F [compound 60] | – | – | 100 µM | 21% | –
Nc1ccccc1NC(=O)CCCCCCC(=O)NO [compound 28] | – | – | 20 µM | 54% | –
O=C(CCCCCCC(=O)Nc1ccc(C(=O)NO)cc1)Nc1ccc(C(=O)NO)cc1 [compound 57] | – | – | 8 µM | 10% | –
O=C(CCCCCCC(=O)Nc1cc(F)c(F)cc1F)NO [compound 42] | – | – | 8 µM | 36% | –
O=C(CCCCCCC(=O)Nc1c(F)c(F)c(F)c(F)c1F)Nc1c(F)c(F)c(F)c(F)c1F [compound 64] | – | – | 125 µM | 13% | –
CC(CCCCC(C)C(=O)N(C)C)C(=O)N(C)C (stereo not shown) [compound 67] | – | – | – | 90% | –
CN(C(=O)CCCCCCC(=O)NO)c1ccccc1 [compound 54] | – | – | – | 40% | –

SMILES | Optimal Conc. [1] | NBT Positive [1] | Optimal Conc. [2] | Benzidine Reactive Cells [2] | minimum duration of continuous exposure required to induce differentiation in a substantial portion (>20%) of the population [3]
O=C(CCC(F)(F)CCC(=O)NO)NO [compound 70] | – | – | – | 19% | –
N#Cc1cccc(NC(=O)CCCCCCC(=O)O)c1 [compound 6] | 20 µM | 30% | – | 44% | –
O=C(CCCCCCC(=O)N1CCCCC1)NO [compound 17] | – | – | – | 30% | –
COc1cccc(NC(=O)CCCCCCC(=O)NO)c1 [compound 52] | – | – | 6 µM | 38% | –
O=C(CCCCCCC(=O)Nc1c(F)cc(F)cc1F)Nc1c(F)cc(F)cc1F [compound 63] | – | – | 125 µM | 35% | –
N#CCc1ccc(NC(=O)CCCCCCC(=O)Nc2ccc(CC#N)cc2)cc1 [compound 58] | – | – | 50 µM | 25% | –
O=C(CCCCCCC(=O)Nc1ccc(OCc2ccccc2)cc1)NO [compound 35] | – | – | 4 µM | 20% | –
N#Cc1ccc(NC(=O)CCCCCCC(=O)NO)cc1 [compound 21] | 2 µM | 6% | 7 µM | 70% | –
O=C(CCCCCCC(=O)Nc1cccc(C(F)(F)F)c1)NO [compound 26] | 6 µM | 27% | 30 µM | 30% | –
[N-]=[N+]=Nc1ccc(NC(=O)CCCCCCC(=O)NO)cc1 [compound 31] | 2.5 µM | 7% | 2 µM | 47% | –
O=C(CCCCCCC(=O)Nc1ccc([N+](=O)[O-])cc1)Nc1ccc([N+](=O)[O-])cc1 [compound 65] | – | – | 25 µM | 14% | –
O=C(O)CCCCCCC(=O)NO [compound 12] | – | – | – | 35% | –
N#Cc1ccc(NC(=O)CCCCCCC(=O)O)cc1 [compound 7] | 20 µM | 21% | – | 52% | –
CN(C)C(=O)CCCCCCC(=O)NO [compound 11] | – | – | – | 53% | –
O=C(CCCCCCC(=O)Nc1ccccc1Br)NO [compound 38] | – | – | 8 µM | 45% | –
O=C(CCCCCCC(=O)Nc1ccccc1)NO [compound 3] | 1 µM | 21% | – | 70% | –
O=C(CCCCCCC(=O)Nc1ccc(F)cc1F)Nc1ccc(F)cc1F [compound 59] | – | – | 500 µM | 54% | –
O=C(CCCCCCC(=O)NC1CCCCC1)NO [compound 16] | – | – | – | 35% | –
